Reference: patent EP4563620A1, “THREE-ARM POLYETHYLENE GLYCOL DERIVATIVE CONTAINING AMINO ACID RESIDUES” (Xiamen Sinopeg Biotech Co., Ltd., priority 2022, dated 2024)

Tests used:
[1] = system: H22 mouse liver cancer cells; assay: Anti-tumor efficacy in vivo (transplanted solid tumor, tumor weight); settings: H22 subcutaneous tumor in mice, tail vein injection on days 2 and 7 post-inoculation, tumors weighed after 2 weeks of administration
Experimental: The transplantation of animal tumors was adopted as the experimental method, with 6 mice per group, and H22 mouse liver cancer cells were inoculated subcutaneously into the right axilla of the mice to form solid tumors. Single-dose administrations via tail vein injection were performed on days 2 and 7 post-inoculation, respectively. After 2 weeks of administration, the mice were sacrificed via cervical dislocation, and the tumors were excised and weighed. Tumor Inhibition Rate = [G-H/G]*100% (G represents the average tumor weight of the blank control group, H represents the average tumor weight of the treatment group). Table 4. Results of Anti-tumor Effect

[2] = system: human ovarian cancer cell A2780; assay: Cytotoxicity assay, MTT staining; format: cell-based; settings: A2780, 10 nM, 48 h
Experimental: (§1) Cytotoxicity assay of PEGylated irinotecan E10-1 (wherein the polyethylene glycol component is derived from E4-1) was performed using MTT staining. A blank control group containing no drugs but only culture medium, a positive control group containing irinotecan, and an experimental group containing PEGylated irinotecan (E10-1) were respectively set up. The drug concentration of the positive control group and experimental group was 10 nM, with 6 replicate wells each, and the assay was repeated three times. Six types of cancer cells were selected as in vitro cancer cell models: human colon cancer cell COLO205, human colon adenocarcinoma cell HT29, human lung adenocarcinoma cell A549, pancreatic cancer cell MiaPaCa-2, human ovarian cancer cell A2780, and human ovarian adenocarcinoma cell OVCAR-3.
(§2) Cells were inoculated onto a 96-well plate at a density of 1×10^4 cells/well, with 100 µL of cell suspension added to each well. After the inoculation, the cells were incubated in a cell culture incubator at 37°C, 4% CO2 for 24 h. The old culture medium was aspirated, and then 100 µL of culture medium containing 10 nM E10-1 was added to each experimental group, 100 µL of culture medium containing 10 nM irinotecan was added to each positive control group, and 100 µL of fresh culture medium was added to the blank control group. After further incubation for 48 h, 20 µL of 5 mg/mL MTT in PBS buffer was added to each well. After incubating the cancer cells with MTT for 4 h, the mixture of culture medium and MTT buffer was aspirated, and then DMSO (150 µL/well) was added to dissolve the blue-purple crystalline product of formazan in viable cells. The 96-well plate was gently shaken until the crystalline product was fully dissolved, and then a microplate reader was used to measure the absorbance at 490 nm. [formula]

[3] = system: human lung adenocarcinoma cell A549; assay: Cytotoxicity assay, MTT staining; format: cell-based; settings: A549, 10 nM, 48 h
Experimental: as §1, §2

[4] = system: human ovarian adenocarcinoma cell OVCAR-3; assay: Cytotoxicity assay, MTT staining; format: cell-based; settings: OVCAR-3, 10 nM, 48 h
Experimental: as §1, §2

[5] = system: human colon adenocarcinoma cell HT29; assay: Cytotoxicity assay, MTT staining; format: cell-based; settings: HT-29, HT29, 10 nM, 48 h
Experimental: as §1, §2

[6] = system: human colon cancer cell COLO205; assay: Cytotoxicity assay, MTT staining; format: cell-based; settings: COLO 205, COLO205, 10 nM, 48 h
Experimental: as §1, §2

[7] = system: pancreatic cancer cell MiaPaCa-2; assay: Cytotoxicity assay, MTT staining; format: cell-based; settings: Homo sapiens, MIA PaCa-2, MiaPaCa-2, 10 nM, 48 h
Experimental: as §1, §2

`CCc1c2c(nc3ccc(OC(=O)N4CCC(N5CCCCC5)CC4)cc13)-c1cc3c(c(=O)n1C2)COC(=O)[C@]3(O)CC` [irinotecan] was tested, and the “Tumor Inhibition Rate” value [1] was 30.3%, the viability at 0.01 µM [2] was 73% and the viability at 0.01 µM [3] was 70%. It also gave a viability at 0.01 µM [4] of 75%, a viability at 0.01 µM [5] of 74% and a viability at 0.01 µM [6] of 76%. The viability at 0.01 µM [7] was 76%.
